Results on 21 molecules are retold here after US11111240B2, “Sultam compound and application method thereof” (Chia Tai Tianqing Pharmaceutical Group Co., Ltd., priority 2016, dated 2021).

One may read the IC50 as the concentration needed to halve the response being measured. A higher IC50 goes with a need for much substance.

Bounds are passed on as bounds.

The target in this assay is IDH1 (R132H) (Homo sapiens (Human), UniProt O75874, R132H). The assay can be described thus: Enzyme assay, IDH1m inhibition (NADPH decrease, diaphorase/resazurin). In kind it is biochemical. To be noted: 40 nM enzyme, 16 h pre-incubation at 23° C. The source says: Resazurin is a traditional redox dye, and after a redox reaction, it can be reduced from a blue resazurin without fluorescence to a pink fluorescent substance, resorufin, which can be measured and quantified with relative fluorescence unit (RFU) of fluorophotometer (Ex=530-570 nm, Em=590-620 nm). At present, resazurin is widely used for determining the viability of bacteria, cells, etc. and the enzyme activity detection of oxidoreductase. We detected the decrease of cofactor NADPH to determine the inhibitory activity of a compound against IDH1m and detected the generation of cofactor NADPH to determine the inhibitory activity of a compound against IDH WT. The compound was pre-incubated with IDH1m and NADPH, and then the reaction was initiated by adding α-KG and performed for certain time under a linear condition. Then, diaphorase (lipoamide dehydrogenase) and the corresponding substrate resazurin were added thereto for detection. Lipoamide dehydrogenase terminated the IDH1m reaction by decreasing the available cofactor NADPH, which oxidized NADPH to NADP, and reduced resazurin to high fluorescent resorufin. The amount of the remaining cofactor NADPH after a specific reaction time was quantified via an easily detectable fluorophore.
IDH1 (R132H), sequence (O75874 whole entry R132H): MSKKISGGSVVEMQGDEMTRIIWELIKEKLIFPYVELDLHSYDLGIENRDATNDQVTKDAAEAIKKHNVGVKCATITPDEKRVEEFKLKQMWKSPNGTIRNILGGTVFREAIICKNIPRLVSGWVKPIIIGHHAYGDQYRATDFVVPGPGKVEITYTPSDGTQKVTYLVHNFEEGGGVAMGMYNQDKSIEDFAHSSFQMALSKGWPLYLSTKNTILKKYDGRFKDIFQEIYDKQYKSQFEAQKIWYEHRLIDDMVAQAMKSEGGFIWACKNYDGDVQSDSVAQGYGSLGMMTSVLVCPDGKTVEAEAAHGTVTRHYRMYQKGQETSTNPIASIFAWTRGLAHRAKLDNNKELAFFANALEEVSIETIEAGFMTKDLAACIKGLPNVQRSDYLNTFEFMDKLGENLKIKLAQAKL
The specific operation was as follows: 2.5 μl of the compound diluted in a 3-fold gradient was added to a 384-well plate, followed by adding 5 μl of the reaction buffer (20 mM Tris-HCl, pH 7.5; 150 mM NaCl; 10 mM MgCl2; 0.4 mg/mL BSA (Bovine Serum Albumin) and 2 mM DTT (dithiothreitol)) containing 40 nM IDH1 (R132H/R132C) and 20 μM NADPH. Then, the above test mixture was incubated at 23° C. for 16 hours, and then 2.5 μl of the reaction buffer containing 4 mM α-KG was added to initiate the reaction. After they were incubated for 60 minutes at room temperature, 5 μl of the termination mixture (0.4 U/ml diaphorase and 20 μM resazurin) formulated with the reaction buffer was added to convert resazurin to resorufin, so as to measure the amount of the remaining NADPH. After incubating at 23° C. for 10 minutes, fluorescence values were determined through Flexstation 3 at Ex535/Em595. The enzyme activity of each compound was respectively determined at 12 concentrations, and the data were calculated using the software GraFit6.0 (Erithacus Software) to obtain the IC50 value of each compound.
On to `CN1C[C@@H](C(=O)N(c2cccc(F)c2)C(C(=O)NC2CC(F)(F)C2)c2ccccc2Cl)N(c2cc(C#N)ccn2)S1(=O)=O` (stereo partly drawn) [Example 25, (3S)—N-(1-(2-chlorophenyl)-2-((3,3-difluorocyclobutyl)amino)-2-oxoethyl)-2-(4-cyanopyridin-2-yl)-N-(3-fluorophenyl)-5-methyl-1,2,5-thiadiazolidine-3-carboxamide 1,1-dioxide], for which inhibition was half-maximal at 20 nM (IC50). `N#Cc1cc(F)cc(N(C(=O)[C@@H]2CCS(=O)(=O)N2c2cc(C#N)ccn2)[C@H](C(=O)NC2CC(F)(F)C2)c2ccccc2Cl)c1` [Example 8, (S)—N—((S)-1-(2-chlorophenyl)-2-((3,3-difluorocyclobutyl)amino)-2-oxoethyl)-2-(4-cyanopyridin-2-yl)-N-(3-cyano-5-fluorophenyl)-isothiazolidine-3-carboxamide 1,1-dioxide] had an IC50 of under 20 nM.

The molecule `O=C(NC1CCCCC1)[C@H](c1ccccc1Cl)N(C(=O)[C@@H]1CCS(=O)(=O)N1c1ncccn1)c1cccc(F)c1` [Example 14, (S)—N—((S)-1-(2-chlorophenyl)-2-(cyclohexylamino)-2-oxoethyl)-2-(pyrimidin-2-yl)-N-(3-fluorophenyl)-isothiazolidine-3-carboxamide 1,1-dioxide] had an IC50 of under 20 nM. `N#Cc1ccnc(N2[C@H](C(=O)N(c3ccc(F)c(F)c3)[C@@H](C(=O)NC3CC(F)(F)C3)c3ccccc3Cl)CCS2(=O)=O)c1` [Example 9, (S)—N—((R)-1-(2-chlorophenyl)-2-((3,3-difluorocyclobutyl)amino)-2-oxoethyl)-2-(4-cyanopyridin-2-yl)-N-(3,4-difluorophenyl)-isothiazolidine-3-carboxamide 1,1-dioxide] gave an IC50 of under 1000 nM. Molecule `N#Cc1ccnc(N2[C@H](C(=O)N(c3cccc(F)c3)[C@H](C(=O)NC3CC(F)(F)C3)c3ccccc3Cl)CNS2(=O)=O)c1` [Example 24, (S)—N—((S)-1-(2-chlorophenyl)-2-((3,3-difluorocyclobutyl)amino)-2-oxoethyl)-2-(4-cyanopyridin-2-yl)-N-(3-fluorophenyl)-1,2,5-thiadiazolidine-3-carboxamide 1,1-dioxide] registered an IC50 of under 20 nM. `O=C(NC1CCCCC1)[C@@H](c1ccccc1Cl)N(C(=O)[C@@H]1CCS(=O)(=O)N1c1ncccn1)c1cccc(F)c1` [Example 13, (S)—N—((R)-1-(2-chlorophenyl)-2-(cyclohexylamino)-2-oxoethyl)-2-(pyrimidin-2-yl)-N-(3-fluorophenyl)-isothiazolidine-3-carboxamide 1,1-dioxide] displayed an IC50 of under 1000 nM. With `N#Cc1ccnc(N2[C@H](C(=O)N(c3cccc(S(N)(=O)=O)c3)C(C(=O)NC3CCCCC3)c3ccccc3Cl)CCS2(=O)=O)c1` (stereo partly drawn) [Example 26, (3S)—N-(1-(2-chlorophenyl)-2-(cyclohexylamino)-2-oxoethyl)-2-(4-cyanopyridin-2-yl)-N-(3-aminosulfonylphenyl)-isothiazolidine-3-carboxamide 1,1-dioxide] the figure was under 20 nM; with `N#Cc1cc(F)cc(N(C(=O)[C@@H]2CCS(=O)(=O)N2c2cc(C#N)ccn2)[C@@H](C(=O)NC2CC(F)(F)C2)c2ccccc2Cl)c1` [Example 7, (S)—N—((R)-1-(2-chlorophenyl)-2-((3,3-difluorocyclobutyl)amino)-2-oxoethyl)-2-(4-cyanopyridin-2-yl)-N-(3-cyano-5-fluorophenyl)-isothiazolidine-3-carboxamide 1,1-dioxide], under 500 nM; with `N#Cc1ccnc(N2[C@H](C(=O)N(c3cccc(F)c3)[C@H](C(=O)NC3CCCCC3)c3ccccc3Cl)CCS2(=O)=O)c1` [Example 16, (S)—N—((S)-1-(2-chlorophenyl)-2-(cyclohexylamino)-2-oxoethyl)-2-(4-cyanopyridin-2-yl)-N-(3-fluorophenyl)-isothiazolidine-3-carboxamide 1,1-dioxide], under 20 nM. Next, `N#Cc1ccnc(N2[C@H](C(=O)N(c3cccc(F)c3)[C@@H](C(=O)NC3CC(F)(F)C3)c3ccccc3Cl)CCS2(=O)=O)c1` [Example 11, (S)—N—((R)-1-(2-chlorophenyl)-2-((3,3-difluorocyclobutyl)amino)-2-oxoethyl)-2-(4-cyanopyridin-2-yl)-N-(3-fluorophenyl)-isothiazolidine-3-carboxamide 1,1-dioxide]: under 500 nM.

Take `N#Cc1cccc(CN2[C@H](C(=O)N(c3cccc(F)c3)C(C(=O)NC3CCCCC3)c3ccccc3Cl)CCS2(=O)=O)c1` (stereo partly drawn) [Example 21]: the concentration for half-maximal inhibition (IC50) is under 10000 nM. On to `N#Cc1ccnc(N2[C@H](C(=O)N(c3cccc(F)c3)[C@@H](C(=O)NC3CCCCC3)c3ccccc3Cl)CCS2(=O)=O)c1` [Example 15, (S)—N—((R)-1-(2-chlorophenyl)-2-(cyclohexylamino)-2-oxoethyl)-2-(4-cyanopyridin-2-yl)-N-(3-fluorophenyl)-isothiazolidine-3-carboxamide 1,1-dioxide], for which the IC50 was under 500 nM. Molecule `N#Cc1ccnc(N2[C@H](C(=O)N(c3cccc(F)c3)[C@@H](C(=O)NC3CCC(F)(F)CC3)c3ccccc3Cl)CCS2(=O)=O)c1` [Example 22] had an IC50 of under 1000 nM. `O=C(NC1CCCCC1)[C@H](c1ccccc1Cl)N(C(=O)[C@@H]1CCS(=O)(=O)N1c1cc(F)ccn1)c1cccc(F)c1` [Example 18, (S)—N—((S)-1-(2-chlorophenyl)-2-(cyclohexylamino)-2-oxoethyl)-2-(4-fluoropyridin-2-yl)-N-(3-fluorophenyl)-isothiazolidine-3-carboxamide 1,1-dioxide] yielded a half-inhibitory concentration (IC50) of under 100 nM. For the molecule `N#Cc1ccnc(N2[C@H](C(=O)N(c3ccc(F)c(F)c3)[C@H](C(=O)NC3CC(F)(F)C3)c3ccccc3Cl)CCS2(=O)=O)c1` [Example 10, (S)—N—((S)-1-(2-chlorophenyl)-2-((3,3-difluorocyclobutyl)amino)-2-oxoethyl)-2-(4-cyanopyridin-2-yl)-N-(3,4-difluorophenyl)-isothiazolidine-3-carboxamide 1,1-dioxide], the IC50 is under 20 nM. Next, `N#Cc1ccnc(N2[C@H](C(=O)N(c3cccc(F)c3)[C@H](C(=O)NC3CCC(F)(F)CC3)c3ccccc3Cl)CCS2(=O)=O)c1` [Example 23, (S)—N—((S)-1-(2-chlorophenyl)-2-((4,4-difluorocyclohexyl)amino)-2-oxoethyl)-2-(4-cyanopyridin-2-yl)-N-(3-fluorophenyl)-isothiazolidine-3-carboxamide 1,1-dioxide]: under 20 nM; `N#Cc1ccnc(N2[C@H](C(=O)N(c3cc(F)cc(F)c3)[C@@H](C(=O)NC3CC(F)(F)C3)c3ccccc3Cl)CCS2(=O)=O)c1` [Example 3, (S)—N—((R)-1-(2-chlorophenyl)-2-((3,3-difluorocyclobutyl)amino)-2-oxoethyl)-2-(4-cyanopyridin-2-yl)-N-(3,5-difluorophenyl)-isothiazolidine-3-carboxamide 1,1-dioxide]: under 500 nM; `C#Cc1ccnc(N2[C@H](C(=O)N(c3cccc(F)c3)C(C(=O)NC3CCCCC3)c3ccccc3Cl)CCS2(=O)=O)c1` (stereo partly drawn) [Example 19, (3S)—N-(1-(2-chlorophenyl)-2-(cyclohexylamino)-2-oxoethyl)-N-(3-fluorophenyl)-2-(4-ethynylpyridin-2-yl)isothiazolidine-3-carboxamide 1,1-dioxide]: under 1000 nM. In turn, `N#Cc1ccnc(N2[C@H](C(=O)N(c3cc(F)c[n+]([O-])c3)[C@H](C(=O)NC3CC(F)(F)C3)c3ccccc3Cl)CCS2(=O)=O)c1` [Example 27, 3-((S)—N—((S)-1-(2-chlorophenyl)-2-((3,3-difluorocyclobutyl)amino)-2-oxoethyl)-2-(4-cyanopyridin-2-yl)-1,1-dioxoisothiazolidine-3-carboxamido)-5-fluoropyridine-1-oxide] returned an IC50 of 20 nM. `N#Cc1ccnc(N2[C@H](C(=O)N(c3cc(F)cc(F)c3)[C@H](C(=O)NC3CC(F)(F)C3)c3ccccc3Cl)CCS2(=O)=O)c1` [Example 4, (S)—N—((S)-1-(2-chlorophenyl)-2-((3,3-difluorocyclobutyl)amino)-2-oxoethyl)-2-(4-cyanopyridin-2-yl)-N-(3,5-difluorophenyl)-isothiazolidine-3-carboxamide 1,1-dioxide] gave an IC50 of under 20 nM. `N#Cc1ccnc(N2[C@H](C(=O)N(c3cccc(C(F)(F)F)c3)[C@H](C(=O)NC3CC(F)(F)C3)c3ccccc3Cl)CCS2(=O)=O)c1` [Example 6, (S)—N—((S)-1-(2-chlorophenyl)-2-((3,3-difluorocyclobutyl)amino)-2-oxoethyl)-2-(4-cyanopyridin-2-yl)-N-(3-trifluoromethylphenyl)-isothiazolidine-3-carboxamide 1,1-dioxide] gave an IC50 of under 20 nM.
